The term inhibition denotes the relative decrease from the control value, in per cent.

Assay [1] concerns the target T1, human B1R receptor (hB1R) (Homo sapiens, UniProt P46663).
T1 construct: expressed in transfected cells; host or cells: CHO K1 cells
T1 sequence (P46663 1-353): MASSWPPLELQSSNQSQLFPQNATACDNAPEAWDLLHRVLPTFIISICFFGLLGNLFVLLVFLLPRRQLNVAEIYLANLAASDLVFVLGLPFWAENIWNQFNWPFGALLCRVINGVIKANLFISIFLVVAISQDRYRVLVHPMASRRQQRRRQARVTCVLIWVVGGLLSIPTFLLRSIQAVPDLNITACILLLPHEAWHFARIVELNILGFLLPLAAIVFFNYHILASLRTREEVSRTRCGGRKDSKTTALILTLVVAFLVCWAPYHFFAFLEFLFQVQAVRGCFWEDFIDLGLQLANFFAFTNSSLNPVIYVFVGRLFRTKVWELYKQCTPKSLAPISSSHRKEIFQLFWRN
The assay is described as follows: Functional investigation on the bradykinin receptor 1 (B1R), FLIPR Ca2+ assay, hB1R cells. The assay is classed as cell-based. As for the experimental part:
(§1) The agonistic or antagonistic action of substances can be quantified on the bradykinin receptor 1 (B1R) of the human and rat species with ectopically expressing cell lines (CHO K1 cells) and with the aid of a Ca^2+-sensitive dyestuff (Fluo-4) in a fluorescent imaging plate reader (FLIPR). The figure in % activation is based on the Ca^2+ signal after addition of Lys-Des-Arg^9-bradykinin (0.5 nM) or Des-Arg^9-bradykinin (100 nM). Antagonists lead to a suppression of the Ca^2+ inflow after addition of the agonist. % inhibition compared with the maximum achievable inhibition is stated.
(§2) The agonistic or antagonistic action of substances can be determined on the bradykinin receptor 1 (B1R) of the human and rat species with the following assay. In accordance with this assay, the Ca^2+ inflow through the channel is quantified with the aid of a Ca^2+-sensitive dyestuff (type Fluo-4, Molecular Probes Europe BV, Leiden Holland) in a fluorescent imaging plate reader (FLIPR, Molecular Devices, Sunnyvale, USA).
(§3) Chinese hamster ovary cells (CHO K1 cells) transfected stably with the human B1R gene (hB1R cells) or the B1R gene of the rat (rB1R cells) are used. For functional studies, these cells are plated out on black 96-well plates with a clear base (BD Biosciences, Heidelberg, Germany or Greiner, Frickenhausen, Germany) in a density of 20,000-35,000 cells/well. The cells are left overnight at 37° C. and 5% CO2 in culture medium (hB1R cells: Nutrient Mixture Ham's F12, Gibco Invitrogen GmbH, Karlsruhe, Germany or DMEM, Sigma-Aldrich, Taufkirchen, Germany; rB1R cells: D-MEM/F12, Gibco Invitrogen GmbH, Karlsruhe, Germany) with 10 vol. % FBS (foetal bovine serum, Gibco Invitrogen GmbH, Karlsruhe, Germany or PAN Biotech GmbH, Aidenbach, Germany). On the following day, the cells are loaded for 60 min at 37° C. with 2.13 μM Fluo-4 (Molecular Probes Europe BV, Leiden Holland) in HBSS buffer (Hank's buffered saline solution, Gibco Invitrogen GmbH, Karlsruhe, Germany) with 2.5 mM probenecid (Sigma-Aldrich, Taufkirchen, Germany) and 10 mM HEPES (Sigma-Aldrich, Taufkirchen, Germany). The plates are then washed 2× with HBSS buffer, and HBSS buffer which additionally contains 0.1% BSA (bovine serum albumin; Sigma-Aldrich, Taufkirchen, Germany), 5.6 mM glucose and 0.05% gelatine (Merck KGaA, Darmstadt, Germany) is added. After a further incubation of 20 minutes at room temperature, the plates are inserted into the FLIPR for the Ca^2+ measurement.
(§4) Alternatively, the plates are washed with buffer A (15 mM HEPES, 80 mM NaCl, 5 mM KCl, 1.2 mM CaCl2, 0.7 mM MgSO4, 2 g/l glucose, 2.5 mM probenecid), buffer A is added and the plates are loaded with 2.5 μM Fluo-4 and 0.025% Pluronic F127 (Sigma-Aldrich, Taufkirchen, Germany). Thereafter, the cells are washed 2× with buffer A and incubated for 30 minutes at room temperature with buffer A, which additionally contains 0.05% BSA and 0.05% gelatine, and thereafter inserted into the FLIPR for the Ca^2+ measurement.
(§5) The Ca^2+-dependent fluorescence is measured here before and after addition of substances (λex=488 nm, λem=540 nm). Quantification is by measurement of the highest fluorescence intensity (FC, fluorescence counts) over time.
(§6) The FLIPR protocol consists of 2 additions of substance. Test substances (10 μM) are first pipetted on to the cells and the Ca^2+ inflow is compared with the control (hB1R: Lys-Des-Arg^9-bradykinin>=50 nM; rB1R: Des-Arg^9-bradykinin 10 μM). This gives the result in % activation based on the Ca^2+ signal after addition of Lys-Des-Arg^9-bradykinin (>=50 nM) or Des-Arg^9-bradykinin (10 μM). After incubation for 10-20 minutes, Lys-Des-Arg^9-bradykinin (hB1R) or Des-Arg^9-bradykinin (rB1R) in the concentration of the EC80 is applied and the inflow of Ca^2+ is likewise determined. Antagonists lead to a suppression of the Ca^2+ inflow. % inhibition compared with the maximum achievable inhibition is calculated.
(§7) In order to determine the IC50 value, the substances are added in various concentrations. […]

Assay [2] concerns the target T2, B1R receptor of the rat (rB1R) (Rattus norvegicus, UniProt P97583).
T2 construct: expressed in transfected cells; host or cells: CHO K1 cells
T2 sequence (P97583 1-337): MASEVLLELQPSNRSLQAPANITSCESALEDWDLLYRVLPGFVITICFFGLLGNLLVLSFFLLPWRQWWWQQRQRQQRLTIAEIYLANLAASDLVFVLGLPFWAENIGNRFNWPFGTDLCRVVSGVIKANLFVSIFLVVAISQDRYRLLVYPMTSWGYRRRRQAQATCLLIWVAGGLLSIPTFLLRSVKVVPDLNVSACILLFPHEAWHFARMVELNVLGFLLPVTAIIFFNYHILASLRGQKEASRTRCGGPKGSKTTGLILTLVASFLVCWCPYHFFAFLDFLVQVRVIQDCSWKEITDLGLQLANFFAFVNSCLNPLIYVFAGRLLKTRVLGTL
The assay is described as follows: Functional investigation on the bradykinin receptor 1 (B1R), FLIPR Ca2+ assay, rB1R cells. The assay is classed as cell-based. As for the experimental part:
as §1, §2, §3, §4, §5, §6, §7

Structures can show the parent of a compound that is named as a salt.

For `COc1cc(C)c(S(=O)(=O)N(Cc2nc3cccc(C(=O)N4CCC5(CC4)CCN(c4ccncc4)CC5)c3[nH]2)C2CC2)c(C)c1` [I_14, N-cyclopropyl-4-methoxy-2,6-dimethyl-N-[[7-(9-pyridin-4-yl-3,9-diazaspiro[5.5]undecane-3-carbonyl)-1H-benzoimidazol-2-yl]-methyl]-benzenesulfonic acid amide], the inhibition at 10 µM in assay [1] worked out at 99%; in assay [2] it was 95%.
For `COc1cc(C)c(S(=O)(=O)N(C)c2nc3cccc(C(=O)N4CCC5(CC4)CCN(c4ccncc4)CC5)c3n2C)c(C)c1` [I_CC-14, 4-methoxy-N,2,6-trimethyl-N-[1-methyl-7-(3-pyridin-4-yl-3,9-diazaspiro[5.5]undecane-9-carbonyl)-1H-benzoimidazol-2-yl]-benzenesulfonic acid amide], in that order: 96% and 90%.
For `COc1cc(C)c(S(=O)(=O)N(C)c2nc3cccc(C(=O)N4CCC5(CC4)CCN(c4ccncc4)C5)c3n2C)c(C)c1` [I_CC-15, 4-methoxy-N,2,6-trimethyl-N-[1-methyl-7-(3-pyridin-4-yl-3,8-diazaspiro[4.5]decane-8-carbonyl)-1H-benzoimidazol-2-yl]-benzenesulfonic acid amide], in that order: 97% and 99%.
Consider `COc1cc(C)c(S(=O)(=O)N(C)C(C)c2nc3cccc(C(=O)N4CCC5(CC4)CCN(S(=O)(=O)c4ccc(Cl)s4)CC5)c3[nH]2)c(C)c1` (centres unmarked) [I_CC-56, N-[1-[7-[9-[(5-Chloro-thiophen-2-yl)sulfonyl]-3,9-diazaspiro[5.5]undecane-3-carbonyl]-1H-benzoimidazol-2-yl]-ethyl]-4-methoxy-N,2,6-trimethyl-benzenesulfonic acid amide], for which the values for the inhibition at 10 µM in assay [1] and in assay [2] were 15% and 101%, respectively.
`COc1cc(C)c(S(=O)(=O)N(C)CCc2nc3ccc(C(=O)N4CCC5(CC4)CCN(c4ccncc4)CC5)cc3[nH]2)c(C)c1` [I_26, 4-methoxy-N,2,6-trimethyl-N-[2-[6-(9-pyridin-4-yl-3,9-diazaspiro[5.5]undecane-3-carbonyl)-1H-benzoimidazol-2-yl]-ethyl]-benzenesulfonic acid amide]: the inhibition at 10 µM in assay [1] stood at 98%; in assay [2] it was 103%.
On to `COc1cc(C)c(C(=O)N(C)Cc2nc3cccc(C(=O)N4CCC5(CC4)CCN(c4ccncc4)CC5)c3[nH]2)c(C)c1` [I_CC-23, 4-methoxy-N,2,6-trimethyl-N-[[7-(3-pyridin-4-yl-3,9-diazaspiro[5.5]undecane-9-carbonyl)-1H-benzoimidazol-2-yl]-methyl]-benzamide], for which the inhibition at 10 µM in assay [1] was 100%; in assay [2], 105%.
Taken in the same sequence, the figures for `COc1cc(C)c(S(=O)(=O)N(C)Cc2nc3cccc(C(=O)N4CCC5(CC4)CCN(c4ccncc4)CC5)c3[nH]2)c(C)c1` [I_CC-03, 4-methoxy-N,2,6-trimethyl-N-[[7-(3-pyridin-4-yl-3,9-diazaspiro[5.5]undecane-9-carbonyl)-1H-benzoimidazol-2-yl]-methyl]-benzenesulfonic acid amide] were 100% and 100%.
With `COc1cc(C)c(S(=O)(=O)N(C)c2nc3c(C(=O)N4CCC5(CC4)CCN(c4ccncc4)CC5)cccc3s2)c(C)c1` [I_CC-19, 4-methoxy-N,2,6-trimethyl-N-[4-(3-pyridin-4-yl-3,9-diazaspiro[5.5]undecane-9-carbonyl)-benzothiazol-2-yl]-benzenesulfonic acid amide], the values for the inhibition at 10 µM in assay [1] and in assay [2] were 54% and 80%, respectively.
On to `COc1cc(C)c(S(=O)(=O)N(C)C(C)c2nc3cccc(C(=O)N4CCC5(CCN(C(=O)c6ccc(F)cc6F)CC5)CC4)c3[nH]2)c(C)c1` (centres unmarked) [I_CC-53, N-[1-[7-[9-(2,4-Difluoro-benzoyl)-3,9-diazaspiro[5.5]undecane-3-carbonyl]-1H-benzoimidazol-2-yl]-ethyl]-4-methoxy-N,2,6-trimethyl-benzenesulfonic acid amide], for which the inhibition at 10 µM in assay [1] worked out at 85%; in assay [2], 88%.
On to `CN(Cc1nc2cccc(C(=O)N3CCC4(CC3)C(=O)NCC4c3ccncc3)c2[nH]1)C(=O)c1ccccc1Cl` (centres unmarked) [I_CC-02, 2-chloro-N-methyl-N-[[7-(4-oxo-1-pyridin-4-yl-3,8-diazaspiro[4.5]decane-8-carbonyl)-1H-benzoimidazol-2-yl]-methyl]-benzamide], for which the inhibition at 10 µM in assay [1] turned out to be 10%; in assay [2] it was 46%.
Regarding `Cc1cc(S(=O)(=O)N(C)Cc2nc3cccc(C(=O)N4CCC5(CC4)CCN(c4ccncc4)C5)c3[nH]2)c(C)cc1Cl` [I_CC-10, 4-chloro-N,2,5-trimethyl-N-[[7-(3-pyridin-4-yl-3,8-diazaspiro[4.5]decane-8-carbonyl)-1H-benzoimidazol-2-yl]-methyl]-benzenesulfonic acid amide], the inhibition at 10 µM in assay [1] is 94%; in assay [2] it was 88%.
For `CN(Cc1nc2cccc(C(=O)N3CCC4(CC3)CCN(c3ccncc3)CC4)c2[nH]1)S(=O)(=O)c1ccc(OC(F)(F)F)cc1Cl` [I_11, 2-chloro-N-methyl-N-[[7-(9-pyridin-4-yl-3,9-diazaspiro[5.5]undecane-3-carbonyl)-1H-benzoimidazol-2-yl]-methyl]-4-(trifluoromethyloxy)-benzenesulfonic acid amide hydrochloride], in that order: 99% and 99%.
Turning to `COc1cc(C)c(S(=O)(=O)N(C)C(C)c2nc3cccc(C(=O)N4CCC5(CCN(Cc6cccnc6)CC5)CC4)c3[nH]2)c(C)c1` (centres unmarked) [I_CC-28, 4-Methoxy-N,2,6-trimethyl-N-[1-[7-[9-(pyridin-3-yl-methyl)-3,9-diazaspiro[5.5]undecane-3-carbonyl]-1H-benzoimidazol-2-yl]-ethyl]-benzenesulfonic acid amide], the inhibition at 10 µM turned out to be 96% in assay [1] and 85% in assay [2].

Values taken from US8232288B2, “Substituted benzimidazoles, benzothiazoles and benzoxazoles” (Gruenenthal GmbH, priority 2009, dated 2012).
